Key:
TXA2 [1] = assay: TXA2 antagonist properties (general statement, standard tests); conditions: in words
From the text: (§1) As stated earlier, the compound of formula I is an antagonist of one or more of the actions of TXA2, for example certain of its actions on blood platelets, the vasculature and/or the lung.

TXA2 [2] = assay: Test (a): rabbit aortal strip model (Piper and Vane); assay type: cell-based; conditions: agonist TXA2 or U46619
Description: as §1
(a) The rabbit aortal strip model devised by Piper and Vane (Nature, 1969, 223, 29-35) using as agonist a freshly prepared sample of TXA2, generated by addition of arachidonic acid (25 μg) to citrated, platelet rich rabbit plasma (250 μl) and allowing the mixture to aggregate fully over 90 seconds before use; alternatively the TXA2 mimetic agent known as U46619 (described by R. L. Jones et alia in "Chemistry, Biochemistry and Pharmacological Activity of Prostanoids" edited by S. M. Roberts and F. Scheinmann, at page 211; Pergamon Press, 1979) may be used as the agonist;

[3] = target: T1, U46619 stimulated platelet aggregation (Homo sapiens, UniProt P21731); assay: Test (b): blood platelet aggregation test (Born), human citrated platelet-rich plasma; assay type: cell-based; conditions: averaged over several concentrations
T1 construct: aggregating human, citrated, platelet-rich plasma; endogenous in cells; host or cells: human platelets in citrated platelet-rich plasma
T1 sequence (P21731 1-343): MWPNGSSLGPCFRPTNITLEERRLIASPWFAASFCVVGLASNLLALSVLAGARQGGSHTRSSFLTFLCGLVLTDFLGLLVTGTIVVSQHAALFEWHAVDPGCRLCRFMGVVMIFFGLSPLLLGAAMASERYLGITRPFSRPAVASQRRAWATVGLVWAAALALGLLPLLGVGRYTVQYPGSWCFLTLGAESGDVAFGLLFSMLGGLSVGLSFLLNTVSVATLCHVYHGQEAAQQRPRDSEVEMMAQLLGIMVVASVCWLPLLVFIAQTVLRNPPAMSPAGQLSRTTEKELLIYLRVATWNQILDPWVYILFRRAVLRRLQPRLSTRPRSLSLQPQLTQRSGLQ
From the text: (b) a blood platelet aggregation test based on that described by Born (Nature, 1962, 194, 927-929) and involving:
(i) aggregating human, citrated, platelet-rich plasma by addition of the TXA2 mimetic agent U46619 so that a dose-response curve is generated;
(ii) generating a dose-response curve for U46619 stimulated platelet aggregation in the presence of increasing amounts of test compound (generally in the range 10^-5 M to 10^-10 M); and
(iii) calculating a KB value indicating potency of TXA2 antagonism for the test compound, averaged over several concentrations, from the calculated 50% response value for U46619 aggregation in the presence and absence of test compound; and […]

[4] = tested on: U46619 induced bronchoconstriction; assay: Test (c): bronchoconstriction test, Konzett-Rossler anaesthetised guinea-pig model; assay type: in vivo; conditions: 2 hours after oral dosing at 0.005 mg/kg; ratio of U46619 concentration required to cause 50% bronchoconstriction in presence and absence of test compound
From the text: (c) a bronchoconstriction test involving measuring the inhibition by a test compound of the bronchoconstriction induced in the Konzett-Rossler, anaesthetised guinea-pig model (as modified by Collier and James, Brit. J. Pharmacol., 1967, 30, 283-307) by intravenous administration of the TXA2 mimetic agent, U46619 and involving:
(i) obtaining a cumulative dose-response curve to U46619 induced bronchoconstriction by intravenous administration of constant volumes of increasing concentrations of U46619 (0.2-4 ug/kg) in physiological saline solution and expressing bronchoconstriction as the maximum of that theoretically obtainable with no air flow to the test animal;
(ii) generating a cumulative dose-response curve to U46619 induced bronchoconstriction at 30 minute intervals for 3 hours after oral dosing of test compound; and
(iii) calculating a dose-ratio for the test compound (that is the ratio of concentration of U46619 required to cause 50% bronchoconstriction in the presence and absence of test compound) indicating the potency of TXA2 antagonism.

[5] = tested on: U46619 induced hypertension; assay: Test (d): U46619 induced hypertension in anaesthetised rats; assay type: in vivo, rat (Alderley Park strain); conditions: 1 hour after an oral dose of 0.05 mg/kg
Description: (d) Male rats (Alderley Park strain) are anaesthetised with sodium pentobarbital and blood pressure is monitored at the carotid artery. The TXA2 mimetic agent U46619 is administered intravenously at 5 μg/kg via the jugular vein to produce a 20-30 mm Hg (2640-3970 pascal) increase in systolic blood pressure. The procedure is repeated twice to establish reproducibility of the effect. A test compound is then administered either intravenously (via the jugular vein) or orally (via a cannula) directly into the stomach and the animal is challenged with U46619, five minutes after dosing with test compound and then successively every ten minutes until the hypertensive effect of U46619 is no longer blocked.

Row | Compound | TXA2 antagonist properties (TXA2 [1]) | pA2 (TXA2 [2]) | Kb [3] [nM] | dose ratio [4] | inhibition of U46619 induced hypertension [5] [%]
1 | O=C(O)CCC/C=C\C[C@@H]1CO[C@H](C(F)(F)F)O[C@@H]1c1ccccc1 (relative stereo) [5(Z)-7-([2,4,5-cis]-4-phenyl-2-trifluoromethyl-1,3-dioxan-5-yl)heptenoic acid, reference compound] | significantly lower TXA2 antagonist properties |  |  |  | 
2 | COc1ccccc1[C@H]1O[C@@H](C(F)(F)F)OC[C@H]1C/C=C\CCC(=O)O (relative stereo) [4(Z)-6-([2,4,5-cis]-4-o-methoxyphenyl-2-trifluoromethyl-1,3-dioxan-5-yl)hexenoic acid] | also possess TXA2 antagonist properties |  |  |  | 
3 | O=C(O)CC/C=C\C[C@@H]1CO[C@H](C(F)(F)F)O[C@@H]1c1ccccc1O (relative stereo) [compound of formula I, 4(Z)-6-([2,4,5-cis]-4-o-hydroxyphenyl-2-trifluoromethyl-1,3-dioxan-5-yl)hexenoic acid] | unexpectedly superior TXA2 antagonist properties | 7.58±0.05 | 13.2 | > 40 | > 60

Source: patent US4902712A, “Fluoroalkane derivatives” (Imperial Chemical Industries plc, priority 1985, dated 1990)
